Test results published in patent US20090138988A1, “MODIFICATION OF PLANT DISEASE RESISTANCE” (priority 2007, published 2009).

Test system: P. syringae pv. tabaci
Test: Squalene complementation of SQS1 RNAi line resistance to nonhost pathogen
Assay type: in vivo, Arabidopsis
Method: Squalene was supplied at the concentration as indicated above each panel when transplanting two-week old seedlings and thereafter watering. P. syringae pv. tabaci was infiltrated into leaves of four-week old plants at 1×10^7 cfu/ml. The inoculated plants were kept at 19-21° C. and covered to keep high humidity. Pictures were taken 3 days post inoculation
It was hypothesized that SQS1 RNAi lines would have less squalene compared to wild-type plants. Arabidopsis has two SQS genes: SQS1 and SQS2. T-DNA knockout lines for SQS2 are not available in SALK or GABI collections. Even though both SQS1 and SQS2 have more than 80% nucleotide identity, in the SQS1 RNAi line, only the transcripts of SQS1 was reduced but not SQS2 (FIG. 10). A brief pathway of sterol biosynthesis in plants and also other pathways that may be affected by silencing of SQS1 are shown in FIG. 11. […] It was therefore shown that squalene plays a critical role in conferring nonhost resistance against certain pathogens, and the role is recoverable in susceptible RNAi lines by squalene dosing.

With `CC(C)=CCC/C(C)=C/CC/C(C)=C/CC/C=C(\C)CC/C=C(\C)CCC=C(C)C` [squalene] the “recovery of nonhost resistance of SQS1 RNAi lines” value (10 μM squalene fed, P. syringae pv. tabaci 1×10^7 cfu/ml, 3 days post inoculation) was “completely recovered resistance phenotype back to wild-type levels” and the “recovery of nonhost resistance of SQS1 RNAi lines” value (squalene fed at 1 μM to 10 μM, P. syringae pv. tabaci) was “recovered nonhost resistance in a dose dependent manner”.
